Reference: article PMC7993727, “Discovery of a novel AR/HDAC6 dual inhibitor for prostate cancer treatment” (Aging (Albany NY), 2021)
“And” between values parts separate entries of the source, which are not always exact repeats. Equal values may be shown once.

Tests used:
HDAC2 = molecular target: T1, HDAC2 (Homo sapiens, UniProt Q92769); experiment: biochemical
T1 construct: purchased BPS Bioscience
Method: (§1) Commercial fluorescent assay kits were used to measure the activities of HDAC (BPS Bioscience). Briefly, the tested compounds were diluted in DMSO into a 96-well plate, and then assay buffer, HDAC, and substrate were added. The plate was incubated at 37° C for 30 minutes for enzymatic reactions, and the developer was added. After 10 minutes of incubation, the generated fluorescence was measured at an excitation of 380 nm and an emission of 460 nm.

LNCaP cells = experiment: cell proliferation assay; assay type: cell-based; conditions: Homo sapiens, 72 h, read-out: IC50 values proliferation LNCaP
Method: (§2) After 7 days, cell viability was measured using a CellTiter 96® AQueous One Solution Cell Proliferation Assay kit (Promega).

VCaP cells = experiment: cell proliferation assay; assay type: cell-based
Method: as §2

HEK293 cells = experiment: cell proliferation assay; assay type: cell-based; conditions: Homo sapiens, HEK293, 72 h, read-out: IC50 values proliferation HEK293
[1] = pharmacokinetics of Zeta55 in rats; assay type: in vivo; conditions: for AUC(0-t): 0-72h
Method: To evaluate the pharmacokinetic properties of Zeta55 in vivo, rats were orally (20 mg/kg) or intravenously (5 mg/kg) administrated with Zeta55, and the plasma concentration of Zeta55 was measured using LC-MS/MS.
SD male rats weighing about 250 g were used for the pharmacokinetics study of Zeta55. After a fast of 12 hours, four rats were oral administrated with 20 mg/kg Zeta55 and one rat was tail vein injected with 5 mg/kg Zeta55. Plasma samples of 0.2 ml were taken at 0, 0.083, 0.25, 0.5, 1, 2, 3, 5, 8, 10, 24, 48, and 72 hours after administration and then measured by LC-MS/MS. AUC0-t, AUC0-∞, t1/2, Tmax, Vz/F, and Cl/F were analyzed by Phoenix winnonlin 8.0.

HSP90, HSP60, HSP70 = experiment: expression levels of heat shock proteins; assay type: cell-based
HDAC6 = molecular target: T2, HDAC6 (Homo sapiens, UniProt Q9UBN7); experiment: fluorescent-based HDAC assay; assay type: biochemical; set-up: purchased BPS Bioscience
T2 sequence (Q9UBN7 1-1215): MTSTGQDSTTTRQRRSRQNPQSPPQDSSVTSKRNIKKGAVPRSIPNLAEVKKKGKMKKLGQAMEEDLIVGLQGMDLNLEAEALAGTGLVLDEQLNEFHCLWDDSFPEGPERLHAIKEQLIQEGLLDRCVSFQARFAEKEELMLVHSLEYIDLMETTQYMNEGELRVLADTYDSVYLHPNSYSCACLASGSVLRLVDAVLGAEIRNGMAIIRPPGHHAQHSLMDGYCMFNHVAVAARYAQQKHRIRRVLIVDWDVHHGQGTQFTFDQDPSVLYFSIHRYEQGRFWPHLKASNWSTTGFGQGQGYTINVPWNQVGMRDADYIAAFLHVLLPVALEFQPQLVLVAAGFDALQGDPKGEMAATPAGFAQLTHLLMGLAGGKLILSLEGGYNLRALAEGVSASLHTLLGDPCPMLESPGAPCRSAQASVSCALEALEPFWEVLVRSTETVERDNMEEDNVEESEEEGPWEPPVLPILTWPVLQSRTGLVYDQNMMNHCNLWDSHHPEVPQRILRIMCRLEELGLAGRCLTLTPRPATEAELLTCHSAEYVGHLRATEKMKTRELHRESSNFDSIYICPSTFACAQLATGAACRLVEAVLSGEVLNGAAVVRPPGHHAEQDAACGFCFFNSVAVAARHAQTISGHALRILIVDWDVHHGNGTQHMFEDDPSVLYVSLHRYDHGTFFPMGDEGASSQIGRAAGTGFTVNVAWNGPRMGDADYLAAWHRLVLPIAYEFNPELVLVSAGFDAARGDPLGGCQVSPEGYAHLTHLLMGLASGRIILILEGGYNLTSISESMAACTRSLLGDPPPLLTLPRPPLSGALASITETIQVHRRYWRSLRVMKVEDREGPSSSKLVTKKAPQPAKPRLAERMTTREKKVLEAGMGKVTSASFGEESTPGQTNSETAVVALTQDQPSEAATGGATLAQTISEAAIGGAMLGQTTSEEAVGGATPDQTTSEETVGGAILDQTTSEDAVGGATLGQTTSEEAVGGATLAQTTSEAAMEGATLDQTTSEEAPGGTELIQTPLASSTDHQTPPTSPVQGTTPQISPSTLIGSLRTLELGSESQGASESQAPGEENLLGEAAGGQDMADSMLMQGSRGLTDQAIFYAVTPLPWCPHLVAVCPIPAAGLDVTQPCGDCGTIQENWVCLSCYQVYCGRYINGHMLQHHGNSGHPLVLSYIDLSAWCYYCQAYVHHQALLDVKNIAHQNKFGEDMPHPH
Method: as §1

[2] = IV, tail vein injection 5 mg/kg, n=1, rats
[3] = male, SD, rat, plasma, IV, tail vein injection 5 mg/kg, n=1, rats
[4] = male, SD, rat, plasma, PO, oral gavage 20 mg/kg, n=4, rats

T1 sequence (Q92769 whole entry): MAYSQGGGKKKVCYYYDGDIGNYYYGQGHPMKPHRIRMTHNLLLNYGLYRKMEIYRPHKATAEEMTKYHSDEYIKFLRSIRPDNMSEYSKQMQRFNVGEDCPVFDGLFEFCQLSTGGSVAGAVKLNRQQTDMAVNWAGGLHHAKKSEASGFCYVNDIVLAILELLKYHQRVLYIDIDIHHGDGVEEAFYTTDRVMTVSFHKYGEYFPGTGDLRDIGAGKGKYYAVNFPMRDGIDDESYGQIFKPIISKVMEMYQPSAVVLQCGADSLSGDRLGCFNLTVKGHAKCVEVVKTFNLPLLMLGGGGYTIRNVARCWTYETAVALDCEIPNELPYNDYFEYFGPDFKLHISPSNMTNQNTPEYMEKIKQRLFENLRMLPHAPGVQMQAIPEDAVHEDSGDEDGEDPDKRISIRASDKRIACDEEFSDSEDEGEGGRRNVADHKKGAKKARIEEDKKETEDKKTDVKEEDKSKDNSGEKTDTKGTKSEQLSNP

For N#Cc1ccc(N2C(=O)C3(CCC3)N(c3ccc(C(=O)NO)c(F)c3)C2=S)cc1C(F)(F)F [Zeta55], the IC50 (HDAC2) was over 20 µM, the IC50 (LNCaP cells) was 8.36 µM and the IC50 (VCaP cells; Homo sapiens, VCaP, 168 h, read-out: IC50 values proliferation VCaP) was 2.47 µM. The “anti-proliferation activity relative to MDV3100” value (VCaP cells; VCaP cells) was 4.5 fold, the IC50 (HEK293 cells) was over 50 µM and the Cl/F [1, 2] was 114.6149 mL/min/kg. The Vz/F [1, 2] was 7.741576 L/kg, the t1/2 ([1]; PO, oral gavage 20 mg/kg, n=4, rats, plasma, 20 mg/kg) was 174 min and 175.5 min and the half-life ([1]; male, SD, rat, plasma, iv, 5 mg/kg, tail vein injection 5 mg/kg, n=1, rats) was about 48 min. For the same molecule, the half-life ([1]; male, SD, rat, plasma, po, 20 mg/kg, oral gavage 20 mg/kg, n=4, rats) was about 174 min, the AUC(0-inf) [1, 3] was 727 ng·h/mL and the Cmax [1, 3] was 1430 ng/mL. For the same molecule, the Tmax [1, 3] was 4.98 min, the AUC(0-t) [1, 3] was 722 ng·h/mL and the bioavailability ([1]; male, SD, rat, plasma, PO 20 mg/kg vs IV 5 mg/kg, rats) was 17.6%. For the same molecule, the AUC(0-inf) [1, 4] was 555 ng·h/mL, the CL/F [1, 4] was 632 mL/min/kg and the Cmax [1, 4] was 183 ng/mL. For the same molecule, the Tmax [1, 4] was 22.5 min, the AUC(0-t) [1, 4] was 508 ng·h/mL and the Vd/F ([1]; male, SD, rat, plasma, PO, oral gavage 20 mg/kg, n=4, rats, read-out: Vz/F) was 166 L/kg. For the same molecule, the “expression levels of HSP70” value (HSP90, HSP60, HSP70) was “slightly up-regulated”, the “expression levels of HSP90 and HSP60” value (HSP90, HSP60, HSP70) was “did not influence” and the IC50 (HDAC6) was 0.98 µM. For the same molecule, the “selectivity for HDAC6 over other HDACs tested” value (HDAC6; over HDAC1, 2, 3, 4) was over 20 folds.
